Source: publication PMC4128046, “Effect of a toggle switch mutation in TM6 of the human adenosine A3 receptor on Gi protein-dependent signalling and Gi-independent receptor internalization” (British Journal of Pharmacology, 2014)
pKi: −log10 of the molar value.

Key:
A3-YFP = target: T1, A3-YFP (Homo sapiens, UniProt P0DMS8); assay: Fluorescence-based competition binding assay with CA200645, A3-YFP; details: A3-YFP cells, 25 nM CA200645, 60 min, 37°C
T1 construct: cDNA encoding the full length human A3 receptor; expressed in transfected cells
T1 sequence (P0DMS8 1-318): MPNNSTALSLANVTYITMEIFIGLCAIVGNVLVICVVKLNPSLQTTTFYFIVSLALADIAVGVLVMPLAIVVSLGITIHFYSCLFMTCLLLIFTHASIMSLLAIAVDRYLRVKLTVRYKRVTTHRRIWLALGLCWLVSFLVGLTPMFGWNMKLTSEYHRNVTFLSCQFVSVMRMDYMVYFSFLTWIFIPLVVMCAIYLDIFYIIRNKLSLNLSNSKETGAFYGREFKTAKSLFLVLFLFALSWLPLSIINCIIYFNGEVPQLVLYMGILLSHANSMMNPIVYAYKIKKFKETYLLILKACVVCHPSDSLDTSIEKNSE
Protocol: On the day of analysis, normal growth medium was removed and cells washed once with HBSS pre-warmed to 37°C. […] Buffer was then removed from each well, cells washed once in HBSS and fresh HBSS added at room temperature. Plates were immediately imaged using an ImageXpress Ultra confocal plate reader, which captured four central images per well using a Plan Fluor 40× NA0.6 extra-long working distance objective. CA200645 was excited at 635 nm and emission collected through a 640–685 nm band pass filter. Total image intensity was obtained using a multiwave length cell scoring algorithm within MetaXpress software (Molecular Devices).
Time course experiments were fitted using a one phase association equation which is as follows [drawing 2] where Yo represents the level of internalization at time (t) equal to zero, Plateau is the maximal internalization at infinite time and K is the rate constant in […]. Statistical significance was determined by Student's unpaired t-test or by one-way ANOVA with Dunnett's post hoc analysis and P < 0.05 was considered statistically significant.

SNAP-A3 = target: T2, SNAP-A3 (Homo sapiens, UniProt P0DMS8); assay: Confocal imaging of SNAP-tagged receptor internalization, SNAP-A3; assay type: cell-based; details: SNAP-A3 transiently expressed in CHO CRE-SPAP cells, BG-AF488 label, 10 μM agonist
T2 construct: the methionine start signal was removed from cDNA encoding the full length A3; expressed in transfected cells; host or cells: CHO CRE-SPAP, transient (Fugene HD)
T2 sequence (P0DMS8 2-318 limits assumed): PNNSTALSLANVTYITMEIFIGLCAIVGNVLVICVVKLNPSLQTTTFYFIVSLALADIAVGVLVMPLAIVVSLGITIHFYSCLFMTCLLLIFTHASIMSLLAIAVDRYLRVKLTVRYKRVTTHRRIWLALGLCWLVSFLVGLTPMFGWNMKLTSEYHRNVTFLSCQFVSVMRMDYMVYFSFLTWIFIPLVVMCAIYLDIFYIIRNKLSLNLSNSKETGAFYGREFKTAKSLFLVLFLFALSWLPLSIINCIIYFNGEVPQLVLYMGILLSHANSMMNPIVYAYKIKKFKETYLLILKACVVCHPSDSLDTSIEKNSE
Protocol: CHO-K1 cells stably expressing a cAMP response element-secreted placental alkaline phosphatase (CRE-SPAP) reporter gene (CHO CRE-SPAP) under hygromycin selectivity and CHO-K1 cells stably expressing β-arrestin2-vYnL (CHO β-arrestin2-vYnL, a gift from Dr. N. Holliday, University of Nottingham, Nottingham, UK) were maintained in DMEM/F12 medium containing 10% FCS and 2 mM L-glutamine at 37°C in a humidified atmosphere of air/CO2 (19:1). […] Cell lines were initially screened for YFP or bimolecular fluorescence complementation (BiFC) fluorescence and CRE-SPAP cells lines were subsequently tested in the CRE-SPAP gene transcription assay. […]
Live-cell BiFC imaging was performed on A3-vYc/β-arrestin2-vYnL and A3 W243F-vYc/β-arrestin2-vYnL cells grown in Nunc Labtek 8-well plates, and images obtained using a Zeiss 710 confocal microscope (Carl Zeiss GmbH, Jena, Germany) fitted with a 63× plan-Apochromat NA1.4 Ph3 oil-immersion objective. […] For both YFP, BiFC and BG-AF488 label, a 488 nm argon laser was used to excite the fluorophore and emission was detected using a BP505-530 filter. […] Images of A3-YFP and A3 W243F-YFP cells were taken with same pinhole diameter, laser power, gain and offset to allow comparison of YFP fluorescence. To obtain fluorescence intensity values, a region of interest was drawn around the plasma membrane of 10 cells per image in Zeiss AIM 4.2 software (Carl Zeiss GmbH).

Compound	pKi (A3-YFP)	internalization of SNAP-tagged receptor seen in confocal images (SNAP-A3)
CCCCC#Cc1nc(NC)c2ncn([C@@H]3O[C@H](CO)[C@@H](O)[C@H]3O)c2n1 [HEMADO, 2-(1-hexynyl)-N-methyladenosine]	7.48	clear punctate granules
CCNC(=O)[C@H]1O[C@@H](n2cnc3c(N)ncnc32)[C@H](O)[C@@H]1O [NECA, 5-(N-ethylcarboxamido)adenosine]		clear punctate granules
